Data: article PMC9266822, “Thermal Shift Assay for Small GTPase Stability Screening: Evaluation and Suitability” (International Journal of Molecular Sciences, 2022)
Entries after “also recorded” stand apart in the source; their conditions may differ.

Key:
KRAS WT = test system: T1, KRAS WT; experiment: Protein-Probe thermal stability assay; format: binding, human; details: for Thermal Stability (°C): Table S1
T1 construct: His6-MBP (N, cleaved yes); made in house; host or cells: E. coli
Protocol: (§1) All Protein-Probe assays were performed using a sample volume of 8 µL and a two-step assay protocol. Detection was performed at room temperature (RT) by adding 65 µL Protein-Probe solution: 4 µM HIDC (1,1,3,3,3′,3′-hexamethylindodicarbocyanine iodide) and 1–1.5 nM Eu^3+-labeled peptide probe (NH2-[…]). Assays were performed in a sample buffer containing 10 mM HEPES (pH 7.5), 0.001% Triton X-100 and 20 mM NaCl and the buffer was supplemented with 0–10 mM MgCl2, 0–1 mM CaCl2, or 0–1 mM EDTA, depending on the assay. In all thermal stability assays, samples were preincubated at RT for 10 min (nucleotides) or 30 min (inhibitors) prior to thermal measurements. Depending on the studied protein, thermal ramping was performed up to 95 °C, using 5 °C intervals. At each temperature, samples were incubated for 3 min before the Protein-Probe solution was added, and the TRL-signals at 620 nm were monitored at RT.
(§2) In addition, KRAS WT was monitored in a sample buffer supplemented with 0–10 mM MgCl2 or 0–1 mM CaCl2.
[…] KRAS WT (50 nM) was also monitored with 10 µM GDP in a buffer without MgCl2 or supplemented with 0–1 mM CaCl2 or 1 mM EDTA. HRAS (2 µM), NRAS (2 µM), RhoA (2 µM), and Gαi (50 nM) were monitored with 100 µM GDP, GTP, or ATP in buffers with or without 1 mM MgCl2 and 1 mM EDTA. In addition, melting curves for KRAS WT (50 nM) were measured with GTP analogs GTPγS, GMPPNP, and GMPPCP (0–300 µM), and GMP (0–1000 µM) in the presence of 1 mM MgCl2.
(§3) All inhibitor assays were performed with a buffer containing 1 mM MgCl2. […]

KRAS G12C = test system: T2, KRAS G12C; experiment: Protein-Probe thermal stability assay; format: binding, human; details: Table S1; KRAS G12C 50 nM; EDTA 0.5 mM, MgCl2 1 mM
T2 construct: GG-Hs.KRAS4b (2-188) G12C; His6-MBP (N, cleaved yes); made in house; host or cells: E. coli
Protocol: All Protein-Probe assays were performed using a sample volume of 8 µL and a two-step assay protocol. […] Assays were performed in a sample buffer containing 10 mM HEPES (pH 7.5), 0.001% Triton X-100 and 20 mM NaCl and the buffer was supplemented with 0–10 mM MgCl2, 0–1 mM CaCl2, or 0–1 mM EDTA, depending on the assay. In all thermal stability assays, samples were preincubated at RT for 10 min (nucleotides) or 30 min (inhibitors) prior to thermal measurements. […] At each temperature, samples were incubated for 3 min before the Protein-Probe solution was added, and the TRL-signals at 620 nm were monitored at RT. […]
as §3

KRAS G12D = experiment: Protein-Probe thermal stability assay; format: binding, human; details: Table S1; KRAS G12D 50 nM; MgCl2 1 mM, GDP 10 mM as headed
Protocol: as §1, §2
(§4) KRAS G13D (50 nM) was monitored in the presence of 0–900 nM GDP, and KRAS WT, G13D, G12D, and Q61R (50 nM) were monitored with 10 and/or 100 µM GDP, GTP, and ATP in buffer supplemented with 1 mM MgCl2. KRAS WT (50 nM) was also monitored with 10 µM GDP in a buffer without MgCl2 or supplemented with 0–1 mM CaCl2 or 1 mM EDTA. HRAS (2 µM), NRAS (2 µM), RhoA (2 µM), and Gαi (50 nM) were monitored with 100 µM GDP, GTP, or ATP in buffers with or without 1 mM MgCl2 and 1 mM EDTA. In addition, melting curves for KRAS WT (50 nM) were measured with GTP analogs GTPγS, GMPPNP, and GMPPCP (0–300 µM), and GMP (0–1000 µM) in the presence of 1 mM MgCl2.
All inhibitor assays were performed with a buffer containing 1 mM MgCl2.
(§5) Assays were performed using three DARPins alone or in combination with small molecular inhibitors. […] The thermal curves were monitored after an additional 30 min incubation at RT.

KRAS G13D [1] = test system: T3, KRAS G13D; experiment: Protein-Probe thermal stability assay; format: binding, human
T3 construct: GG-Hs.KRAS4b (2-188) G13D; His6-MBP (N, cleaved yes); made in house; host or cells: E. coli
Protocol: as §1, §2, §4, §5

KRAS Q61R = test system: T4, KRAS Q61R; experiment: Protein-Probe thermal stability assay; format: binding, human
T4 construct: GG-Hs.KRAS4b (2-188) Q61R; His6-MBP (N, cleaved yes); made in house; host or cells: E. coli
Protocol: as §1, §2, §4, §5

KRAS Q61L = test system: T5, KRAS Q61L; experiment: Protein-Probe thermal stability assay; format: binding, human; details: Table S1; KRAS Q61L 50 nM; MgCl2 1 mM
T5 construct: GG-Hs.KRAS4b (2-188) Q61L; His6-MBP (N, cleaved yes); made in house; host or cells: E. coli
Protocol: as §1, §2, §5

KRAS V14I [2] = test system: T6, KRAS V14I; experiment: Protein-Probe thermal stability assay; format: binding; details: Table S1; KRAS V14I 1 µM; MgCl2
T6 construct: KRAS V14I (residues 1-169) lacking the C terminal residues; made in house
Protocol: as §1

Ac-KRAS = test system: T7, Ac-KRAS; experiment: Protein-Probe thermal stability assay; format: binding, human; details: Table S1; Ac-KRAS 1 µM; MgCl2
T7 construct: Truncated (aa 1–169) iMet-
Protocol: as §1, §2

iMet-KRAS = test system: T8, iMet-KRAS; experiment: Protein-Probe thermal stability assay; format: binding, human; details: Table S1; iMet-KRAS 1 µM; MgCl2
T8 construct: iMet-KRAS (G-Hs.KRAS4b(1-169)) (Addgene #159539)
Protocol: as §1, §2

RhoA = test system: T9, RhoA; experiment: Protein-Probe thermal stability assay; format: binding; details: Table S1; RhoA 1 µM; additive concentrations not given (100 µM GDP/GTP)
T9 construct: and RhoA (1-182) were gen-; His6-MBP (N, cleaved yes); made in house; host or cells: E. coli
Protocol: as §1, §2
KRAS G13D (50 nM) was monitored in the presence of 0–900 nM GDP, and KRAS WT, G13D, G12D, and Q61R (50 nM) were monitored with 10 and/or 100 µM GDP, GTP, and ATP in buffer supplemented with 1 mM MgCl2. KRAS WT (50 nM) was also monitored with 10 µM GDP in a buffer without MgCl2 or supplemented with 0–1 mM CaCl2 or 1 mM EDTA. […] In addition, melting curves for KRAS WT (50 nM) were measured with GTP analogs GTPγS, GMPPNP, and GMPPCP (0–300 µM), and GMP (0–1000 µM) in the presence of 1 mM MgCl2.

Gαi = experiment: Protein-Probe thermal stability assay; format: binding
Protocol: as §1, §2, §4

KRAS G13D [3] = test system: T3, KRAS G13D; experiment: SYPRO Orange thermal ramping assay; format: binding, human; details: KRAS G13D 3 µM, 1 mM MgCl2, GDP 1 µM, ATP 1 mM
Protocol: (§6) SYPRO Orange and ANS assays were performed using a one-step protocol, where the samples (8 µL) and SYPRO Orange/ANS solution (12 µL) were combined prior to the first heating step. The samples were incubated for 3 min at each temperature, followed by fluorescence signal measurement. SYPRO Orange was used at 5× (stock 5000×) and ANS at 10 µM final concentration.
Thermal stability curves for KRAS WT, G12C, G13D, and Q61R (0–30 µM) were monitored both with SYPRO Orange and ANS in an assay buffer with or without 1 mM MgCl2. In addition, HRAS, NRAS, KRAS V14I, RhoA, and Gαi were studied at 10 µM concentration. KRAS G13D (3 µM) was assayed with SYPRO Orange in thermal ramping in combination with 0–1000 µM GDP, 1000 µM GTP, and 1000 µM ATP in a buffer supplemented with 1 mM MgCl2. Additionally, 10 µM HRAS, NRAS, KRAS V14I, Ac-KRAS iMet-KRAS, RhoA, and Gαi were studied without additional nucleotides or with 10 or 100 µM GDP/GTP in an assay buffer supplemented with 1 mM MgCl2 or 1 mM EDTA.

KRAS V14I [4] = test system: T6, KRAS V14I; experiment: SYPRO Orange / ANS thermal ramping assay; format: binding; details: KRAS V14I 10 µM, 1 mM MgCl2; 100 µM ATP
Protocol: as §6
Thermal stability curves for KRAS WT, G12C, G13D, and Q61R (0–30 µM) were monitored both with SYPRO Orange and ANS in an assay buffer with or without 1 mM MgCl2. In addition, HRAS, NRAS, KRAS V14I, RhoA, and Gαi were studied at 10 µM concentration. KRAS G13D (3 µM) was assayed with SYPRO Orange in thermal ramping in combination with 0–1000 µM GDP, 1000 µM GTP, and 1000 µM ATP in a buffer supplemented with 1 mM MgCl2. […]

NRAS, HRAS, RhoA, Gαi = experiment: Protein-Probe thermal stability assay, additional GTPases; format: binding; details: any tested condition or protein; data not shown
Protocol: All Protein-Probe assays were performed using a sample volume of 8 μL and a two-step assay protocol. […] Assays were performed in a sample buffer containing 10 mM HEPES (pH 7.5), 0.001% Triton X-100 and 20 mM NaCl and the buffer was supplemented with 0-10 mM MgCl2, 0-1 mM CaCl2, or 0-1 mM EDTA, depending on the assay. […] Depending on the studied protein, thermal ramping was performed up to 95 °C, using 5 °C intervals. At each temperature, samples were incubated for 3 min before the Protein-Probe solution was added, and the TRL-signals at 620 nm were monitored at RT.

SMILES: [Cl-].[Cl-].[Mg+2] [MgCl2]
- stability increase compared to 1 mM EDTA (KRAS WT; KRAS WT 50 nM, additive 1 mM): 9.1 °C
- Tm (KRAS WT; KRAS WT 100 nM, 10 mM MgCl2): 64.7 ± 0.5 °C
- increase of thermal stability over that without MgCl2 (KRAS WT; KRAS WT 100 nM, 1 or 10 mM MgCl2): approximately 10 °C
- Tm (KRAS WT; KRAS WT 100 nM, additive 1 mM): 60.1 ± 0.3 °C
- Thermal Stability (°C) (KRAS WT; KRAS WT 50 nM, additive as headed: EDTA 0.5 mM, MgCl2 1 mM, GDP 10 mM, GTP 10 µM, GTPγS 10 µM, GMP-PNP 300 µM, GMP-PCP 300 µM, GMP 1 mM): 61.3 ± 0.5 °C
- Thermal Stability (°C) (KRAS WT; KRAS WT 1 µM, MgCl2): 54.4 ± 0.6 °C
- Thermal Stability (°C) (KRAS G12C): 61.8 ± 0.5 °C
- Thermal Stability (°C) (KRAS G12D): 60.6 ± 0.5 °C
- Tm (KRAS G13D [1]; KRAS G13D 100 nM, additive 1 mM): 47.7 ± 0.4 °C
- Thermal Stability (°C) (KRAS G13D [1]; Table S1, KRAS G13D 50 nM, EDTA 0.5 mM, MgCl2 1 mM, GDP 10 mM, GTP 10 µM as headed): 50.7 ± 0.2 °C
- Tm (KRAS Q61R; KRAS Q61R 100 nM, additive 1 mM): 66.5 ± 0.5 °C
- Thermal Stability (°C) (KRAS Q61R; Table S1, KRAS Q61R 50 nM, EDTA 0.5 mM, MgCl2 1 mM, GDP 10 mM, GTP 10 µM as headed): 71.9 ± 0.6 °C
- Thermal Stability (°C) (KRAS Q61L): 60.4 ± 0.5 °C
- Thermal Stability (°C) (KRAS V14I [2]): 47.5 ± 0.2 °C
- Thermal Stability (°C) (Ac-KRAS): 66.0 ± 1.0 °C
- Thermal Stability (°C) (iMet-KRAS): 66.9 ± 0.2 °C
- Thermal Stability (°C) (RhoA): 61.3 ± 0.3 °C
- effect of Mg2+ on thermal stability (Gαi): ~ 4.2 °C

SMILES: Nc1ncnc2c1ncn2[C@@H]1O[C@H](COP(=O)(O)OP(=O)(O)OP(=O)(O)O)[C@@H](O)[C@H]1O [ATP, adenosine-5’-triphosphate]
- stabilization (KRAS G13D [3]): no effect; also recorded: no KRAS G13D stabilization
- effect on stability (KRAS V14I [4]): no effect
- stabilization (NRAS, HRAS, RhoA, Gαi): no stabilization
